Measurements as given in patent US20240360114A1 (SIRONAX LTD., priority 2021, published 2024).

Test system: HT-1080 cells
Test: HT-1080 cell viability assay (ferroptosis induced by RSL3, Cell Titer-Glo)
Type: cell-based
Conditions: ferroptosis inducer RSL3, 20 hours, ferroptosis inhibitory activity, Table 2
How it was run: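 Cells seeded overnight, then co-treated with RSL3 and compound (3-fold, 10-point dilution, top 1.1 μM) for 20 hours. Viability by CellTiter-Glo luminescence, normalized to untreated controls; EC50 from sigmoidal non-linear regression.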

`Cc1nc(N2CCOC(C)C2)ccc1NC1C2CC3CC1CC(CN)(C3)C2` (stereo not drawn) [Compound 520, N-(5-(aminomethyl)adamantan-2-yl)-2-methyl-6-(2-methylmorpholino)pyridin-3-amine] gave an EC50 (Homo sapiens, HT-1080, 20 h) of 0.1 to 100 nM.

`Cc1nc(N2CC3COCC3C2)ccc1NC1CC2(CC(N)C2)C1` (stereo not drawn) [Compound 521] gave an EC50 (Homo sapiens, HT-1080, 20 h) of 0.1 to 100 nM.

In the case of `CC1CC(C)CN(c2ccc(NC[C@H]3CC[C@H](N)CC3)cc2)C1` (stereo partly drawn) [Compound 522, N-(((1r,4r)-4-aminocyclohexyl)methyl)-4-(3,5-dimethylpiperidin-1-yl)aniline], the EC50 (Homo sapiens, HT-1080, 20 h) is reported as 0.1 to 100 nM.

For `Cc1nc(N2C3COCC2C3)ccc1NC1CC2(CC(N)C2)C1` (stereo not drawn) [Compound 523, N2-(6-(3-oxa-6-azabicyclo[3.1.1]heptan-6-yl)-2-methylpyridin-3-yl)spiro[3.3]heptane-2,6-diamine], the EC50 (Homo sapiens, HT-1080, 20 h) was 1000 to 10000 nM.

With `Cc1nc(N2CC3CC(C2)O3)ccc1NC1CC2(CC(N)C2)C1` (stereo not drawn) [Compound 524, N2-(6-(6-oxa-3-azabicyclo[3.1.1]heptan-3-yl)-2-methylpyridin-3-yl)spiro[3.3]heptane-2,6-diamine] the EC50 (Homo sapiens, HT-1080, 20 h) was 100 to 1000 nM.

Work on `CC1CN(c2ccc(NC[C@H]3CC[C@H](N)CC3)cc2)CC(C)N1C` (stereo partly drawn) [Compound 525, N-(((1r,4r)-4-aminocyclohexyl)methyl)-4-(3,4,5-trimethylpiperazin-1-yl)aniline] yielded an EC50 (Homo sapiens, HT-1080, 20 h) of 100 to 1000 nM.

For `Cc1nc(N2CC(C)OC(C)C2)ccc1NCCCC1CCC(N)CC1` (stereo not drawn) [Compound 526, N-(3-((1r,4s)-4-aminocyclohexyl)propyl)-6-(2,6-dimethylmorpholino)-2-methyl pyridin-3-amine], the EC50 (Homo sapiens, HT-1080, 20 h) was 0.1 to 100 nM.

`COC1CCN(c2ccc(NC3CC4(CC(N)C4)C3)c(C)n2)CC1` (stereo not drawn) [Compound 527] gave an EC50 (Homo sapiens, HT-1080, 20 h) of 0.1 to 100 nM.

For `Cc1nc(N2C3CCC2COC3)ccc1NC1CC2(CC(N)C2)C1` (stereo not drawn) [Compound 528, N2-(6-(3-oxa-8-azabicyclo[3.2.1]octan-8-yl)-2-methylpyridin-3-yl)spiro[3.3]heptane-2,6-diamine], the EC50 (Homo sapiens, HT-1080, 20 h) was 100 to 1000 nM.

For `COC(C)(C)C1CCN(c2ccc(NC3CC4(CC(N)C4)C3)c(C)n2)CC1` (stereo not drawn) [Compound 529, N2-(6-(4-(2-methoxypropan-2-yl)piperidin-1-yl)-2-methylpyridin-3-yl)spiro[3.3]-heptane-2,6-diamine], the EC50 (Homo sapiens, HT-1080, 20 h) was 0.1 to 100 nM.

For `Cc1nc(N2CCC3(CC2)COC3)ccc1NC1CC2(CC(N)C2)C1` (stereo not drawn) [Compound 530, 2-N-(2-methyl-6-{2-oxa-7-azaspiro[3.5]nonan-7-yl}pyridin-3-yl)spiro[3.3]heptane-2,6-diamine], the EC50 (Homo sapiens, HT-1080, 20 h) was 1000 to 10000 nM.

In the case of `CCN1C(C)CN(c2ccc(NC[C@H]3CC[C@H](N)CC3)cc2)CC1C` (stereo partly drawn) [Compound 532, N-(((1r,4r)-4-aminocyclohexyl)methyl)-4-(4-ethyl-3,5-dimethylpiperazin-1-yl)aniline], the EC50 (Homo sapiens, HT-1080, 20 h) is reported as 100 to 1000 nM.

Work on `Cc1nc(N2CCC3(CCCOC3)CC2)ccc1NC1CC2(CC(N)C2)C1` (stereo not drawn) [Compound 533, N2-(2-methyl-6-(2-oxa-9-azaspiro [5.5]undecan-9-yl)pyridin-3-yl)spiro[3.3]heptane-2,6-diamine] yielded an EC50 (Homo sapiens, HT-1080, 20 h) of 0.1 to 100 nM.

In the case of `Cc1nc(N2CC(C)OC(C)C2)ccc1NC1CCC(CCCN)CC1` (stereo not drawn) [Compound 534, N-(4-(3-aminopropyl)cyclohexyl)-6-(2,6-dimethylmorpholino)-2-methylpyridin-3-amine], the EC50 (Homo sapiens, HT-1080, 20 h) is reported as 0.1 to 100 nM.

Work on `CC1CN(c2ccc(NC3CC4(CC(N)C4)C3)cc2F)CC(C)N1CC(F)(F)F` (stereo not drawn) [Compound 535] yielded an EC50 of 0.1 to 100 nM.

With `COC1(C)CCN(c2ccc(NC3CC4(CC(N)C4)C3)c(C)n2)CC1` (stereo not drawn) [Compound 536, N2-(6-(4-methoxy-4-methylpiperidin-1-yl)-2-methylpyridin-3-yl)spiro[3.3]heptane-2,6-diamine] the EC50 (Homo sapiens, HT-1080, 20 h) was 0.1 to 100 nM.

Work on `Cc1nc(N2CCC(N3C[C@@H](C)O[C@@H](C)C3)CC2)ccc1NC1CC2(CC(N)C2)C1` (stereo partly drawn) [Compound 537, N2-(6-(4-((2S,6R)-2,6-dimethylmorpholino)piperidin-1-yl)-2-methylpyridin-3-yl)spiro[3.3]heptane-2,6-diamine] yielded an EC50 (Homo sapiens, HT-1080, 20 h) of 100 to 1000 nM.

`Cc1nc(N2CCOCC2)ccc1NC1C2CC3CC1CC(CN)(C3)C2` (stereo not drawn) [Compound 538A, N-((2r,5s)-5-(aminomethyl)adamantan-2-yl)-2-methyl-6-morpholinopyridin-3-amine] showed an EC50 (Homo sapiens, HT-1080, 20 h) of 0.1 to 100 nM.
